Molecules are shown by their SMILES. Some results are limits rather than exact numbers.

For orientation: melting point means the temperature of the solid-liquid transition.

`CCN(CC)CCOc1cccc2c1c1cccc(F)c1n2Cc1ccccc1` came in with a melting point of 60 to 60.5 °C. For `CCCCCSCCSCCSCCCCC` the value was less than 50 °C. Turning to `COc1ccc(N(C)c2nc(NC(=O)C(C)(C)C)nc3[nH]c4ccccc4c23)cc1`, the melting point lay in the range of 288 to 289 °C. Under `O=C(O)c1cn(-c2cnsn2)c2c(F)c(F)c(F)cc2c1=O` stands 205 to 207 °C; under `COc1ccc(-c2nc(OC(=O)N(C)C)nn2-c2ccc(OC)cc2)cc1`, 121 to 123 °C; under `CC1(C)Oc2ccc([N+](=O)[O-])cc2C(n2ccccc2=O)C1(O)CNC(=O)C(F)(F)F` (centres undefined), 158 °C. On to `BrCc1noc2ccccc12`, for which the melting point was in the range of 60 to 62 °C. `CON=C(C)c1cc(-c2ccc(S(C)(=O)=O)cc2)c(-c2ccc(F)cc2)s1` gave a melting point of 200 to 203 °C. Under `O=C1NCCn2c1nc1ccccc12` stands greater than 250 °C; under `N#CCCNC(=O)c1cccc(-c2ccc3c(c2)N(c2cc(Cl)ccc2Cl)CC3)c1`, 189 to 190 °C. For `COC(=O)C(C)c1cccc(C(=O)c2ccccc2)c1` (centres undefined) the value was 50 to 52 °C; for `CCOC(=O)N(c1ccccc1N)c1cccc(C)c1C`, 95 to 97 °C; for `CCOC(=O)N1CCC(Nc2ccc(F)cc2[N+](=O)[O-])CC1`, 115 to 116 °C. Under `CCOC(=O)c1cnc2ncnn2c1Cl` stands 130 to 132 °C; under `Cc1cc(S(N)(=O)=O)n(C)n1`, 63 to 66 °C; under `O=Cc1cc(-c2ccc(O)c(O)c2)c2cc(O)c(O)cc2c1O`, greater than 300 °C. The compound `Cc1ccc(C2c3c(C)c(NC(=O)c4ccc5c(c4)OCO5)c(C)c(C)c3OC2(C)C)cc1` (centres undefined) had a melting point of 164 to 165 °C. `Cc1ncc(CNC(=O)c2sc(N3CCN(Cc4ccc(F)cc4)C3=O)nc2C)s1`: the melting point is 213 to 215 °C. For `CCCCCC(C)N(Cc1ccc(OCCC(C)C)cc1)C(Nc1ccc(OC)cc1OC)=C1C(=O)COC1=O` (centres undefined) the value was 125 to 127 °C. Compound `CC(C)(CO)NS(=O)(=O)c1cccc(NC(=O)c2cnn3c(C4CC4)cc(-c4ccc(C(F)(F)F)cc4)nc23)c1` gave a melting point of 228 to 230 °C. For `CCC(=O)NCC=C1CCc2ccc3nn(C)cc3c21` the value was 185 to 187 °C; for `O=C(c1cccnc1)c1cc(Br)cc(Br)c1`, 124 to 126 °C; for `C[C@H](O)C#Cc1cc(CN2CCOCC2)cc2c(=O)c(C(=O)NCc3ccc(Cl)cc3)cn(C)c12`, 158 to 161 °C. For `O=C1c2c(O)cccc2C(O)(c2cccs2)c2cccc(O)c21` the value was 191 to 192 °C. For `CN(C)CCNc1ccc([N+](=O)[O-])c2sc3ccc(O)cc3c(=O)c12` the value was greater than 300 °C; for `O=C(NCCCCN1CCC(c2csc3ccccc23)CC1)c1ccc(-c2ccc(C(F)(F)F)cc2)cc1`, 264 °C.

`c1ccc(C(c2ccccc2)(c2ccccc2)N2CCCCC2)cc1` showed a melting point of 156 to 158 °C. `CC(=O)Nc1ccc([N+](=O)[O-])c(C=O)c1` gave a melting point of 131 to 135 °C. For the compound `O=C1NC(=O)C2(N1)C(=O)N(Cc1ccc(Cl)c(Cl)c1)c1c(F)cccc12` (single isomer, unassigned; (+)), the melting point worked out at 246 °C. For `CCCCc1nc2c(N)nc3cccnc3c2n1CC(C)C` the value was 115 to 116 °C; for `CC(=O)C1CCC2C3CCC4CC(O)C(C)CC4(C)C3C(=O)CC12C` (centres undefined), 142 to 146 °C; for `CC(C)c1nn(-c2ccc(C(F)(F)F)cc2)cc1CO`, 84 to 85 °C.

For the compound `N#CCCOc1ccc(F)cc1`, the melting point lay in the range of 84 to 85 °C. On to `Cc1cccc(NC(=O)NCC(=O)N(c2ccccc2)C(C(=O)OC(C)(C)C)c2cccc(Br)c2)c1` (racemic), for which the melting point worked out at 103 °C. Under `CCN1Cn2c(=O)cc(-c3cccc(C(F)(F)F)c3)n3cnc(c23)C1=O` stands 278 to 280 °C. On to `OCCSC(=S)Nc1ccccn1`, for which the melting point turned out to be 88 °C. Under `Cc1c(C)c(O)c([Si](C)(C)C)c(C#C[Si](C)(C)C)c1O` stands 76 to 77 °C; under `COc1cccc(CCN2C(=O)COc3ccc(C=C4SC(=S)NC4=O)cc32)c1`, 233 to 236 °C. In the case of `CCC12CCC3C4=C(CCC3C1CCC2=O)CC(OC)=CC4` (centres undefined), the melting point was in the range of 126 to 143 °C.

Regarding `COc1ccc(-c2cc(=Nc3c(C)cc(C)cc3C)n(C)c3nncn23)cc1OC`, the melting point was in the range of 125 to 130 °C. `Cn1cc(CCN2C(=O)c3ccccc3C2=O)c2cc(CC(N)=O)ccc21` registered a melting point of 200 to 202 °C. On to `COC(=O)c1cc(O)c2cc3c(O)cc(C(=O)OC)nc3c(C)c2n1`, for which the melting point turned out to be 296 °C.

In the case of `C=CCN1CCc2cc(OC)c(O)cc2C1Cc1ccc(OC)c(OC)c1` (single isomer, unassigned; (+)), the melting point was in the range of 108 to 112 °C. Under `Cc1cc(C)n(-c2nc(Nc3ccccc3)c3ccccc3n2)n1` stands 262 to 265 °C; under `CC(C)Cc1nn(C)c(=O)c2cc(C(O)c3cccc4ccccc34)oc12` (centres undefined), 110 to 112 °C. `CNC(=O)n1c(N=Cc2ccc([N+](=O)[O-])o2)nc2ccccc21`: the melting point was 170 to 171 °C. Compound `N=C(NC=Cc1ccc([N+](=O)[O-])cc1)c1ccc([N+](=O)[O-])cc1` yielded a melting point of 214 to 216 °C. Turning to `COc1ccc(Nc2ccc(F)cc2)cc1`, the melting point is 46 to 48 °C. `COc1nc2cc(Cl)cc(I)c2nc1OC`: the melting point lay in the range of 94 to 96 °C. For the compound `Cc1ncc(C(=O)NCc2cc(C(F)(F)F)cc(C(F)(F)F)c2)c(-c2ccccc2Br)n1`, the melting point was determined as 138 °C.

`CC(=O)SCC(CC(N)=O)C(=O)O` (centres undefined) returned a melting point of 110 to 111 °C. `CC(C)[C@H](NC(=O)OC(C)(C)C)C(=O)N[C@H](CCC(=O)OCc1ccccc1)C(N)=O` came in with a melting point of 149 to 151 °C. Under `CCOC(=O)C1=C(C2CC2)Nc2n[nH]cc2C1c1cccc(C#N)c1Br` (centres undefined) stands 168 to 170 °C; under `COC(=O)c1ccc(CCl)nc1`, 63.5 to 63.8 °C; under `COc1ccc(C(=O)NCCSSCCNC(=O)c2ccc(OC)cc2)cc1`, 136 to 138 °C. For the compound `CSc1cn(C)c2sccc2c1=O`, the melting point is 138 to 140 °C. Compound `CC(C)c1ccc(N(Cc2ccc(N(C)C)cc2)C(=O)C2CCc3c(O)cccc32)cc1` (centres undefined) had a melting point of 158 to 160 °C.

In the case of `O=c1[nH]c2cc(Cl)ccc2c(=O)c2c(C(F)(F)F)n[nH]c12`, the melting point is 334 to 336 °C.

For the compound `CC(C)CCC1CCCCc2c1oc(=O)c(C(c1ccccc1)C1CC1)c2O` (centres undefined), the melting point was in the range of 67 to 77 °C. For `CCCNc1ncnc2c1ncn2C1CC(F)C(CO)O1` (centres undefined) the value was 114 to 115 °C. For `O=C(Nc1ccc2c(c1)nc1n2CCCC1)c1cc2cccnc2n1Cc1ccccc1` the value was 233 to 235 °C; for `O=C1CCC2(CC1)OC(c1ccccc1)c1ccccc12` (centres undefined), 143 to 145 °C. Turning to `CCN1C(Cl)=NC(C)=NS1(=O)=O`, the melting point was in the range of 57 to 59 °C. As to `CC(=O)OC1CSC(Oc2cccnc2Cl)C(OC(C)=O)C1OC(C)=O` (centres undefined), the melting point stood at 160 °C.

The compound `CC1(c2cccs2)Cc2cc(OCC(=O)O)c(Cl)c(Cl)c2C1=O` (centres undefined) yielded a melting point of 161 to 162 °C.

Consider `CCCC(SCC(=O)O)c1ccc2c(c1)OCO2` (centres undefined), for which the melting point lay within 59 to 61 °C. For `COc1ccc2c(c1)sc1[nH]c(=O)c(=O)[nH]c12` the value was greater than 300 °C; for `C[C@H](OC(c1ccccc1)(c1ccccc1)c1ccccc1)C(=O)O`, 100 to 106 °C; for `CCS(=O)(=O)c1cc(S(N)(=O)=O)sc1S(=O)(=O)CC`, 176 to 177 °C.

`Nc1ccc(-c2ccc3nnn(Cc4ccc5ncccc5c4)c3n2)cn1` registered a melting point of 194 to 197 °C. In turn, `CC1(C)CCC(C)(C)c2cc(C(=O)COc3ccc(C(=O)OCc4ccccc4)c(O)c3)ccc21` had a melting point of 103 to 104 °C. For `COC(=O)C1CC(O)C(=O)N1` (centres undefined) the value was 85 to 86 °C; for `O=c1nc(-c2ccc[nH]2)sc2ccccc12`, 202 to 203 °C. Consider `CCOC(=O)c1c(CCc2ccccc2)nc2c(cnn2CC)c1O`, for which the melting point was in the range of 153 to 155 °C.

For the compound `CC(C)(C)C(=O)NS(=O)(=O)c1cccc([N+](=O)[O-])c1`, the melting point fell in the range of 178 to 181 °C. The compound `CN(C)c1c(Cl)cc(C(O)CNC(C)(C)C)cc1Cl` (centres undefined) came in with a melting point of 96 to 99 °C. Turning to `COc1ccccc1N1CCN(NC(=O)c2ccc(Cl)c(S(N)(=O)=O)c2)CC1`, the melting point is 232 to 235 °C. In the case of `NC(=O)N(O)Cc1cccc(OCCc2csc(-c3ccc(C(F)(F)F)cc3)n2)c1`, the melting point lay within 118 to 120 °C. Under `COc1c(C)cc(C)cc1C(=O)O` stands 97 to 98 °C.

Consider `Cc1nc2nc(C(F)(F)F)cc(-c3cccnc3)n2n1`, for which the melting point lay in the range of 195 to 197 °C. `CSC1=NC2=NC3=C(CN(Cc4ccccc4)CC3=O)CN2N1`: the melting point fell in the range of 245 to 247 °C. Compound `COC(=O)C1=C(CCc2ccccc2OC)NC(CC(=O)N2CCN(CCCN(C)C)CC2)=C(C(=O)OC)C1c1c(Cl)cccc1Cl` (centres undefined) registered a melting point of 156 to 158 °C. For `CC(C)Cn1nc(OCCCc2ccc(OC(C)C)cc2OCc2ccc(Cl)cc2Cl)cc1CCC(=O)O` the value was 133 to 134 °C; for `CC1(C)Oc2ccc(CO)cc2[C@@H](N2CCCC2=O)[C@@H]1O` (relative stereo), 175 to 178 °C; for `O=c1[nH]c2ccccc2c2nc(-c3ccc(Cl)cc3)nn12`, 315 to 318 °C. Under `C#CC(O)(c1ccccc1)c1ccc([N+](=O)[O-])cc1` (centres undefined) stands 88 to 89 °C; under `CSc1ncc(C(=N)NO)cc1Cl`, 139 to 143 °C; under `CCOC(=O)/C=C/c1ccc(OCCC2(C)OCCO2)cc1Oc1ncc(C(F)(F)F)cc1Cl`, 90 to 91 °C. On to `CC(C)(CNC(=O)/C(CCO)=C(\c1ccc(Cl)cc1)c1ccc(S(C)(=O)=O)cc1)SN=O`, for which the melting point was 150 to 153 °C.

These data come from a melting point compilation (Tetko et al.; mined from patent text by program, amines drawn as free bases though some values may be those of a salt).
